Source: patent EP4603105A1, “PHARMACEUTICAL COMPOSITION CONTAINING CYCLIC COMPOUND HAVING SELECTIVE KRAS INHIBITORY EFFECT AGAINST HRAS AND NRAS” (CHUGAI SEIYAKU KABUSHIKI KAISHA, priority 2022, dated 2024)
*1 amine or outer side, *2 acyl side, *3 side chain or, on linkers, in order; H or OH if unused. Where a SMILES comes first, the peptide text is derived from it. Bridges are numbered along the chain shown (N, C = ends). [ ]: non-standard residue; d: D form. The star is where a group is joined. hPhe(3-Cl-4-CF3) = N[C@@H](CCc1ccc(C(F)(F)F)c(Cl)c1)C(=O)O; X24 = CC(C)CN([C@@H](Cc1ccc(C(F)(F)F)cc1)C(=O)[*:2])[*:1]; X43 = COCCCN([C@@H](Cc1ccc(C(F)(F)F)cc1)C(=O)[*:2])[*:1]; NPrPhe(4-CF3) = CCCN[C@@H](Cc1ccc(C(F)(F)F)cc1)C(=O)O; NEtPhe(4-Me) = CCN[C@@H](Cc1ccc(C)cc1)C(=O)O; NMeGly(cPent) = CN[C@H](C(=O)O)C1CCCC1; Hyp = O=C(O)[C@@H]1C[C@@H](O)CN1; NMeD = CN[C@@H](CC(=O)O)C(=O)O; NMeL = CN[C@@H](CC(C)C)C(=O)O; Morpholide = C1CN(*)CCO1; Ac5c = NC1(C(=O)O)CCCC1; NEtG = CCNCC(=O)O; Sar = CNCC(=O)O

Tests used:
HRAS wild-type protein = HRAS wild-type protein (Homo sapiens, UniProt P01112); assay: Binding to HRAS by surface plasmon resonance (SPR), KD and KD ratio to KRAS
Sequence of HRAS wild-type protein (P01112 whole entry): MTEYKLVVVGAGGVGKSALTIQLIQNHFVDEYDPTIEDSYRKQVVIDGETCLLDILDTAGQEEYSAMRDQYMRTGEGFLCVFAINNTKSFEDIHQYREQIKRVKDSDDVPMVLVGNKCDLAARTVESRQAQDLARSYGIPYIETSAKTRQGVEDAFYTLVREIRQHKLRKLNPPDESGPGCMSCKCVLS
Summary of the method: (§1)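 Affinity is measured by surface plasmon resonance at 30°C against captured, GDP-loaded RAS carrying a biotinylated Avi tag. Compounds are titrated by single-cycle kinetics, and KD comes from a 1:1 fit.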

[1] = test system: human lung cancer strain NCI-H441; type: cell-based
Summary of the method: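 Readout: […] after the ATP-based reagent. Compound: serial dilutions in dimethyl sulfoxide.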

[2] = target: GDP-bound NRAS wild-type protein (Homo sapiens, UniProt P01111); assay: Binding to NRAS by surface plasmon resonance (SPR), KD and KD ratio to KRAS
Sequence of GDP-bound NRAS wild-type protein (P01111 whole entry): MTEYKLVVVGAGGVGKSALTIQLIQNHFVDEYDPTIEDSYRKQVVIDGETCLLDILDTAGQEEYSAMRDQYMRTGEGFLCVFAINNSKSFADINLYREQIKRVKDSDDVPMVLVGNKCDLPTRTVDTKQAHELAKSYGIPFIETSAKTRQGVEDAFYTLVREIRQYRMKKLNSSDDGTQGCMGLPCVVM
Summary of the method: as §1

[3] = ratio of KD for HRAS wild-type protein to KD for KRAS
[4] = ratio of KD for GDP-bound NRAS wild-type protein to KD for KRAS
[5] = ratio of the KD value with respect to HRAS wild-type protein to the KD value with respect to KRAS
[6] = ratio of the KD value with respect to GDP-bound NRAS wild-type protein to the KD value with respect to KRAS

Row | SMILES | HRAS /KRAS (HRAS wild-type protein; [3]) | IC50 [1] | NRAS /KRAS [2, 4] | HRAS /KRAS (HRAS wild-type protein; [5]) | NRAS /KRAS [2, 6] | HRAS /KRAS (HRAS wild-type protein; ratio of KD with respect to HRAS wild-type protein to KD with respect to KRAS) | NRAS /KRAS ([2]; ratio of KD with respect to GDP-bound NRAS wild-type protein to KD with respect to KRAS)
1 | CC[C@H](C)[C@@H]1NC(=O)[C@H](COC)N(C)C(=O)C[C@@H](C(=O)N2CCOCC2)N(C)C(=O)[C@H](C2CCCC2)N(C)C(=O)C2(CCCC2)NC(=O)[C@@H]2CC(F)(F)CN2C(=O)[C@H](CCc2cc(F)c(C(F)(F)F)c(F)c2)NC(=O)CN(C)C(=O)[C@H](Cc2ccc(C(F)(F)F)cc2)N2CCCCC[C@@H](C2=O)N(C)C(=O)CN(C)C1=O [PP0846] | B (a compound having 3 or more and less than 10 is denoted as B) | 0.0222 µM | B (a compound having 3 or more and less than 10 is denoted as B) |  |  |  | 
2 | C#CC[C@H]1C(=O)N[C@@H]([C@@H](C)CC)C(=O)N(C)CC(=O)N(C)[C@H]2C/C=C\CCN(C2=O)[C@@H](Cc2ccc(C(F)(F)F)cc2)C(=O)N(C)CC(=O)N[C@@H](CCc2cc(F)c(C(F)(F)F)c(F)c2)C(=O)N2C[C@H](OCC)C[C@H]2C(=O)NC2(CC(C)(C)C2)C(=O)N(C)[C@@H](C2CCCC2)C(=O)N(C)[C@H](C(=O)N(C)CCC)CC(=O)N1C [PP2074] |  | 0.0059 µM |  | A (a compound having 10 or more and less than 20 is denoted as A) | A (a compound having 10 or more and less than 20 is denoted as A) |  | 
3 | CCO[C@@H]1C[C@H]2C(=O)NC3(CCC3)C(=O)N(C)[C@@H](C3CCCC3)C(=O)N(C)[C@H](C(=O)N(CC)CC)CC(=O)N(C)[C@@H](CC)C(=O)N[C@@H]([C@@H](C)CC)C(=O)N(C)CC(=O)N(C)[C@H]3C/C=C\CCN(C3=O)[C@@H](Cc3ccc(C(F)(F)F)cc3)C(=O)N(C)CC(=O)N[C@@H](CCc3cc(F)c(C(F)(F)F)c(F)c3)C(=O)N2C1 [PP1305] |  | 0.013 µM |  |  |  | A (a compound having 10 or more and less than 20 is denoted as A) | AA (a compound having 20 or more is denoted as AA)
4 | CCO[C@@H]1C[C@H]2C(=O)NC3(CC(C)(C)C3)C(=O)N(C)[C@@H](C(CC)CC)C(=O)N(C)[C@H](C(=O)N(C)C)CC(=O)N(C)[C@@H](CC3CCC3)C(=O)N[C@@H]([C@@H](C)CC)C(=O)N(C)CC(=O)N(C)[C@H]3C/C=C\CCN(C3=O)[C@@H](Cc3ccc(C(F)(F)F)cc3)C(=O)N(C)CC(=O)N[C@@H](CCc3ccc(Cl)c(Cl)c3)C(=O)N2C1 [PP2180] |  | 0.0278 µM |  | A (a compound having 10 or more and less than 20 is denoted as A) | AA (a compound having 20 or more is denoted as AA) |  | 
5 | CC[C@H](C)[C@@H]1NC(=O)[C@H](CC(C)C)N(C)C(=O)C[C@@H](C(=O)N2CCOCC2)N(C)C(=O)[C@H](C2CCCC2)N(C)C(=O)C2(CCCC2)NC(=O)[C@@H]2CCCN2C(=O)[C@H](CCc2ccc(C(F)(F)F)c(Cl)c2)NC(=O)CN(C)C(=O)[C@H](Cc2ccc(C(F)(F)F)cc2)N(CCCOC)C(=O)CN(C)C(=O)CN(C)C1=O [PP0133] ([NMeL]I[Sar][Sar][X43][Sar][hPhe(3-Cl-4-CF3)]P[Ac5c][NMeGly(cPent)][NMeD]-Morpholide; lactam N-11) | C (A compound having a KD ratio of 0.1 or more and less than 3 is denoted as C) | 0.0064 µM | B (a compound having 3 or more and less than 10 is denoted as B) |  |  |  | 
6 | CCC[C@H]1C(=O)N[C@@H]([C@@H](C)CC)C(=O)N(C)CC(=O)N(C)[C@H]2C/C=C\CCN(C2=O)[C@@H](Cc2ccc(C(F)(F)F)cc2)C(=O)N(C)CC(=O)N[C@@H](CCc2ccc3sc(F)c(C)c3c2)C(=O)N2C[C@H](OCC)C[C@H]2C(=O)NC2(CC(C)(C)C2)C(=O)N(C)[C@@H](C(CC)CC)C(=O)N(C)[C@H](C(=O)N(C)C)CC(=O)N1C [PP2892] | A (a compound having 10 or more and less than 20 is denoted as A) | 0.008 µM | A (a compound having 10 or more and less than 20 is denoted as A) |  |  |  | 
7 | CC[C@H](C)[C@@H]1NC(=O)[C@H](CC(C)C)N(C)C(=O)C[C@@H](C(=O)N2CCOCC2)N(C)C(=O)[C@H](C2CCCC2)N(C)C(=O)C2(CCCC2)NC(=O)[C@@H]2CCCN2C(=O)[C@H](CCc2ccc(C(F)(F)F)c(Cl)c2)NC(=O)CN(CC)C(=O)[C@H](Cc2ccc(C)cc2)N(CC)C(=O)CN(C)C(=O)CN(C)C1=O [PP0028] ([NMeL]I[Sar][Sar][NEtPhe(4-Me)][NEtG][hPhe(3-Cl-4-CF3)]P[Ac5c][NMeGly(cPent)][NMeD]-Morpholide; lactam N-11) | C (A compound having a KD ratio of 0.1 or more and less than 3 is denoted as C) | 0.0545 µM | C (A compound having a KD ratio of 0.1 or more and less than 3 is denoted as C) |  |  |  | 
8 | CC[C@H](C)[C@@H]1NC(=O)[C@H](CC(C)C)N(C)C(=O)C[C@@H](C(=O)N2CCOCC2)N(C)C(=O)[C@H](C2CCCC2)N(C)C(=O)C2(CCCC2)NC(=O)[C@@H]2CCCN2C(=O)[C@H](CCc2ccc(C(F)(F)F)c(Cl)c2)NC(=O)CN(C)C(=O)[C@H](Cc2ccc(C(F)(F)F)cc2)N(CC(C)C)C(=O)CN(C)C(=O)CN(C)C1=O [PP0121] ([NMeL]I[Sar][Sar][X24][Sar][hPhe(3-Cl-4-CF3)]P[Ac5c][NMeGly(cPent)][NMeD]-Morpholide; lactam N-11) | C (A compound having a KD ratio of 0.1 or more and less than 3 is denoted as C) | 0.0295 µM | C (A compound having a KD ratio of 0.1 or more and less than 3 is denoted as C) |  |  |  | 
9 | CCO[C@@H]1C[C@H]2C(=O)NC3(CC(C)(C)C3)C(=O)N(C)[C@@H](C(CC)CC)C(=O)N(C)[C@H](C(=O)N(C)C)CC(=O)N(C)[C@@H](CC3CC3)C(=O)N[C@@H]([C@@H](C)CC)C(=O)N(C)CC(=O)N(C)[C@H]3C/C=C\CCN(C3=O)[C@@H](Cc3ccc(C(F)(F)F)cc3)C(=O)N(C)CC(=O)N[C@@H](CCc3cc(F)c(C(F)(F)F)c(F)c3)C(=O)N2C1 [PP2119] |  | 0.0089 µM |  | B (a compound having 3 or more and less than 10 is denoted as B) | A (a compound having 10 or more and less than 20 is denoted as A) |  | 
10 | CCCN1C(=O)CN(C)C(=O)CN(C)C(=O)[C@H]([C@@H](C)CC)NC(=O)[C@@H]2CCCCCOc3ccc(cc3)C[C@H]1C(=O)N(C)CC(=O)N[C@@H](CCc1cc(F)c(C(F)(F)F)c(F)c1)C(=O)N1C[C@H](OCC)C[C@H]1C(=O)NC1(CCCC1)C(=O)N(C)[C@@H](C1CCCC1)C(=O)N(C)[C@H](C(=O)N(C)C)CC(=O)N2C [PP0895] | C (A compound having a KD ratio of 0.1 or more and less than 3 is denoted as C) | 0.0022 µM | C (A compound having a KD ratio of 0.1 or more and less than 3 is denoted as C) |  |  |  | 
11 | CC[C@H](C)[C@@H]1NC(=O)[C@H](CCOC)N(C)C(=O)C[C@@H](C(=O)N(C)CC)N(C)C(=O)[C@H](C2CCCC2)N(C)C(=O)C2(CC(C)(C)C2)NC(=O)[C@@H]2C[C@H](C)CN2C(=O)[C@H](CCc2ccc(C(F)(F)F)c(OC)c2)NC(=O)CN(C)C(=O)[C@H](Cc2ccc(C(F)(F)F)cc2)N2CC/C=C\C[C@@H](C2=O)N(C)C(=O)CN(C)C1=O [PP1999] |  | 0.0266 µM |  | B (a compound having 3 or more and less than 10 is denoted as B) | A (a compound having 10 or more and less than 20 is denoted as A) |  | 
12 | CC[C@H](C)[C@@H]1NC(=O)[C@H](CC)N(C)C(=O)C[C@@H](C(=O)N(C)C)N(CC)C(=O)[C@H](C2CCCC2)N(C)C(=O)C2(CCC2)NC(=O)[C@@H]2C[C@@H](N3CCC(F)(F)CC3)CN2C(=O)[C@H](CCc2cc(F)c(C(F)(F)F)c(F)c2)NC(=O)CN(C)C(=O)[C@H](Cc2ccc(C(F)(F)F)cc2)N2CCCC[C@@H](C2=O)N(C)C(=O)CN(C)C1=O [PP0733] |  | 0.22 µM |  | B (a compound having 3 or more and less than 10 is denoted as B) | B (a compound having 3 or more and less than 10 is denoted as B) |  | 
13 | CCO[C@@H]1C[C@H]2C(=O)NC3(CC(C)(C)C3)C(=O)N(C)[C@@H](C(CC)CC)C(=O)N(C)[C@H](C(=O)N3CCCC3)CC(=O)N(C)[C@@H](C)C(=O)N[C@@H]([C@@H](C)CC)C(=O)N(C)CC(=O)N(C)[C@H]3C/C=C\CCN(C3=O)[C@@H](Cc3ccc(C)cc3)C(=O)N(C)CC(=O)N[C@@H](CCc3cc(F)c(C(F)(F)F)c(F)c3)C(=O)N2C1 [PP2145] |  | 0.0172 µM |  | A (a compound having 10 or more and less than 20 is denoted as A) | A (a compound having 10 or more and less than 20 is denoted as A) |  | 
14 | CCCN1C(=O)CN(C)C(=O)CN(C)C(=O)[C@H]([C@@H](C)CC)NC(=O)[C@H](CC(C)C)N(C)C(=O)C[C@@H](C(=O)N(C)C)NC(=O)[C@H](C2CCCC2)N(C)C(=O)C2(CCCC2)NC(=O)[C@@H]2C[C@@H](OCC)CN2C(=O)[C@H](CCc2ccc(C(F)(F)F)c(Cl)c2)NC(=O)CN(C)C(=O)[C@@H]1Cc1ccc(C(F)(F)F)cc1 [PP0359] ([NMeL]I[Sar][Sar][NPrPhe(4-CF3)][Sar][hPhe(3-Cl-4-CF3)][Hyp](Et)[Ac5c][NMeGly(cPent)]D-NMe2; lactam N-11) | B (a compound having 3 or more and less than 10 is denoted as B) | 0.0331 µM | B (a compound having 3 or more and less than 10 is denoted as B) |  |  |  | 
